Data published in PMC6212638, “In silico identification and biochemical characterization of the human dicarboxylate clamp TPR protein interaction network” (FEBS Open Bio, 2018).
Peptide text beside a SMILES is read from it.

B2: GST–AIP (natural protein, human, UniProt O00170 1-330, looked up)
chain: MADIIARLREDGIQKRVIQEGRGELPDFQDGTKATFHYRTLHSDDEGTVLDDSRARGKPMELIIGKKFKLPVWETIVCTMREGEIAQFLCDIKHVVLYPLVAKSLRNIAVGKDPLEGQRHCCGVAQMREHSSLGHADLDALQQNPQPLIFHMEMLKVESPGTYQQDPWAMTDEEKAKAVPLIHQEGNRLYREGHVKEAAAKYYDAIACLKNLQMKEQPGSPEWIQLDQQITPLLLNYCQCKLVVEEYYEVLDHCSSILNKYDDNVKAYFKRGKAHAAVWNAQEAQADFAKVLELDPALAPVVSRELRALEARIRQKDEEDKARFRGIFSH
notes: bait of the GST pull-down; source: E. coli BL21, purified (GSTrap 4B, PD-10)
B3: GST–FKBP51 (natural protein, human, UniProt Q13451 1-457, looked up)
chain: MTTDEGAKNNEESPTATVAEQGEDITSKKDRGVLKIVKRVGNGEETPMIGDKVYVHYKGKLSNGKKFDSSHDRNEPFVFSLGKGQVIKAWDIGVATMKKGEICHLLCKPEYAYGSAGSLPKIPSNATLFFEIELLDFKGEDLFEDGGIIRRTKRKGEGYSNPNEGATVEIHLEGRCGGRMFDCRDVAFTVGEGEDHDIPIGIDKALEKMQREEQCILYLGPRYGFGEAGKPKFGIEPNAELIYEVTLKSFEKAKESWEMDTKEKLEQAAIVKEKGTVYFKGGKYMQAVIQYGKIVSWLEMEYGLSEKESKASESFLLAAFLNLAMCYLKLREYTKAVECCDKALGLDSANEKGLYRRGEAQLLMNEFESAKGDFEKVLEVNPQNKAARLQISMCQKKAKEHNERDRRIYANMFKKFAEQDAKEEANKAMGKKTSEGVTNEKGTDSQAMEEEKPEGHV
notes: as for B2

Key:
[1] = tested on: Tom20–Tom70 interaction; assay: Mammalian two-hybrid assay (luciferase) of Tom20–Tom70 interaction in HEK293 cells; format: cell-based, human; settings: peptide 20 μM added 4 h after transfection, 48 h, n = 3
Excerpt: (§1) Tom70 sequence was PCR amplified and subcloned into pACT vector of CheckMate™ mammalian two‐hybrid system (Promega, Madison, WI, USA) using SalI/NotI restriction sites, and Hsp90 and Tom20 DNA sequences were PCR amplified and subcloned into pBIND vector using SalI/NotI restriction sites. Tom70‐pACT/Hsp90‐pBIND and Tom70‐pACT/Tom20‐pBIND were co‐transfected with pLuc plasmid in a 1 : 1 : 1 molar ratio into HEK293 cells using Lipofectamine 3000 transfection reagent (Invitrogen, Carlsbad, CA, USA) according to the manufacturer's protocol. Triplicate samples in 96‐well cell culture plates Corning (Tewskbury, MA, USA) were used in each experiment. Hsp90, R9–Hsp90, Tom20 and R9–Tom20 peptides at concentration 20 μM were added 4 h after transfection. HEK293 cells were cultivated for 48 h, washed twice with PBS and lysed with PBS containing 1% Triton X‐100. Luciferase expression was detected using a luciferase assay kit from BioThema (Huddinge, Sweden) on a 96‐well plate reader from Perkin Elmer (Upplands Väsby, Stockholm, Sweden).
(§2) In subsequent experiments, non‐fluorescent peptides were used. […] Cell impermeable Hsp90 peptide served as a treatment control.

[2] = tested on: Hsp90–Tom70 interaction; assay: Proximity ligation assay (PLA) of Hsp90–Tom70 interaction in HEK293 cells; format: cell-based, human; settings: non-fluorescent peptide, n = 3
Excerpt: (§3) P < 0.05 was considered to be statistically significant. Data are presented as mean ± SEM.
as §2

[3] = tested on: Hsp90–Tom70 interaction; assay: Mammalian two-hybrid assay (luciferase) of Hsp90–Tom70 interaction in HEK293 cells; format: cell-based, human; settings: peptide 20 μM added 4 h after transfection, 48 h, n = 3
Excerpt: as §1, §2

[4] = tested on: HEK293 cells; settings: N-terminally fluorescein-labeled peptides, 20 μM, fluorescence imaging
Excerpt: as §3

[5] = biological target: T1, FKBP51 (Homo sapiens, UniProt Q13451); assay: Dot-blot competition assay: HRP-conjugated peptide vs unlabeled peptide on immobilized FKBP51; settings: HRP-conjugated peptide on immobilized dcTPR proteins
T1 sequence (Q13451 1-457): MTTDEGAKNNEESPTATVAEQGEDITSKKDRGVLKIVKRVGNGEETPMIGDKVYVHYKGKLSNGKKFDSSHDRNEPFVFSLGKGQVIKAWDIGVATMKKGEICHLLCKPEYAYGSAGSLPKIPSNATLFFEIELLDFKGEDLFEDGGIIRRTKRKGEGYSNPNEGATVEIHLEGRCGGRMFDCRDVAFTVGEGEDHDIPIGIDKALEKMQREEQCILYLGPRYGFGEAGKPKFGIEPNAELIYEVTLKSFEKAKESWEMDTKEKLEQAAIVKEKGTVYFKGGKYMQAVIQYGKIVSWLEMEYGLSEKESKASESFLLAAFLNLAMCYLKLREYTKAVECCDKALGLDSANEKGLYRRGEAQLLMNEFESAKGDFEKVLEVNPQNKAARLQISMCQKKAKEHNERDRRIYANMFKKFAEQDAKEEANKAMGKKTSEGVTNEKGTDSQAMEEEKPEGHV
Procedure: Full‐length cDNA clones for respective proteins were obtained from IMAGE consortium (SourceBioScience, Nottingham, UK) and PCR amplified with forward and reverse primers (Table 1) containing overhangs with appropriate restriction sites and cloned into pGEX6 vectors (GE Healthcare, Uppsala, Sweden). Inserts were sequence verified, and the plasmids were transformed into BL21 Escherichia coli strain. Glutathione‐S‐transferase (GST) fusion proteins were purified from 1 L overnight culture after 2 h of induction with 1 mM IPTG. Cells were pelleted, resuspended in 1× PBS and sonicated 3 × 20 s on ice. EDTA and protease inhibitor cocktail were added to prevent proteolysis. The suspension was centrifuged for 30 min at 50 000 g to remove cell debris, and supernatant was loaded onto a 1 mL GSTrap™ 4B column (GE Healthcare). After column washing with 30 mL PBS, GST fusion proteins were eluted with 2.5 mL 10 mM glutathione in PBS. Eluate was passed through a PD‐10 column (GE Healthcare) to remove free glutathione. To prepare GST‐tag‐free proteins, we performed overnight cleavage at 4 °C with PreScission protease (GE Healthcare) followed by passage through a GSTrap column to remove free GST protein. Average yield from 1 L starting culture was 1–5 mg of purified proteins. Protein‐containing fractions were collected, checked with SDS/PAGE and kept at −20 °C.
Peptides were dissolved in HEPES‐KOH buffer pH 7.2 at concentration of 1 mg·mL^−1 and incubated with equimolar amounts of activated horseradish peroxidase (HRP) (Lightning‐link® HRP labeling kit cat. 701‐004, from Innova Biosciences) for 5 min. Reaction was quenched with 0.1 M Tris/HCl, pH 7.5 for 10 min and the products were passed through PD‐10 columns (GE Healthcare). Dot‐blot experiments were performed using GST‐tag‐free proteins applied to the nitrocellulose membrane. After blocking of membrane with 3% BSA in TBS‐T buffer for 1 h and subsequent wash with TBS‐T, HRP‐conjugated peptides (1 × 500 times dilution) were applied and incubated for 1 h. After subsequent washing (3 × 10 min, TBS‐T), membrane was dried and signals were quantified using a digital Fujifilm LAS3000 imager and LAS3000 software. In competition experiments, increasing concentrations of unlabeled peptides were co‐incubated with peptide–HRP conjugates.
Each peptide was separately coupled to HRP.

[6] = tested on: FKBP51; settings: cited from earlier work
Excerpt: Here in this study, we systematically searched the human protein database (https://www.ncbi.nlm.nih.gov/protein/) for the protein products containing Hsp70/Hsp90‐like sequence signatures at their C terminus. Sev ...

[7] = biological target: B3; assay: pull-down; GST–AIP and GST–FKBP51 as bait, purified full-length and truncated proteins as prey; bound proteins probed by western blot with their antibodies; settings: both partners purified
[8] = biological target: B2; assay: as above; settings: both partners purified
[9] = biological target: T2, DNAAF2 (human, UniProt Q9NVR5 1-837); assay: as above; settings: both partners purified
T2 construct: prey of the pull-down; also called dynein axonemal assembly factor 2; source: E. coli BL21, purified as GST fusion (GSTrap), GST removed with PreScission protease
T2 sequence (looked up): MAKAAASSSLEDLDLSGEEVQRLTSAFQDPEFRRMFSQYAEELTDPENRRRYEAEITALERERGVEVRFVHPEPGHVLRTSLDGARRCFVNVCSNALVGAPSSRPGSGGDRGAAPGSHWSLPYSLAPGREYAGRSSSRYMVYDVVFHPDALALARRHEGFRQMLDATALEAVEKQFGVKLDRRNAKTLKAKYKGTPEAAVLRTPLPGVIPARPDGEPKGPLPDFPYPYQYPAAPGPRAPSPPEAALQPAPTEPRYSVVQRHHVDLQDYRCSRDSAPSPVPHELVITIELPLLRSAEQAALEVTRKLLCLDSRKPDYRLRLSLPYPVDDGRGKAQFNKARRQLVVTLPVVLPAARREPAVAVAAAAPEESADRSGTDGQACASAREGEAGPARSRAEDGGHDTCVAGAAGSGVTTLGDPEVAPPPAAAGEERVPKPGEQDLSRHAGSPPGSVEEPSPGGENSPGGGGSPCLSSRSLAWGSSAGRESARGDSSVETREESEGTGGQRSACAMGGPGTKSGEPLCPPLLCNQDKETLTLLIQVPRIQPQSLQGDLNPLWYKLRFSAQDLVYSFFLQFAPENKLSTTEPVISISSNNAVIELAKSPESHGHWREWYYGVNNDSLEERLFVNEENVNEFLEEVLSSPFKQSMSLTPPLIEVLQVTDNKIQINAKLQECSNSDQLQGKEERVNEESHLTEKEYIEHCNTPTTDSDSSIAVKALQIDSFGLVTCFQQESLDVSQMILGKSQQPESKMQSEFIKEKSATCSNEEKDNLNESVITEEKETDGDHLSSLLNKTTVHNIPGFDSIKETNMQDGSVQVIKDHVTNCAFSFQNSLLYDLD

[10] = biological target: T3, NADSYN1 (human, UniProt Q6IA69 1-706); assay: as above; settings: both partners purified
T3 construct: prey of the pull-down; also called Nicotinamide adenine dinucleotide synthase 1; source: E. coli BL21, purified as GST fusion (GSTrap), GST removed with PreScission protease
T3 sequence (looked up): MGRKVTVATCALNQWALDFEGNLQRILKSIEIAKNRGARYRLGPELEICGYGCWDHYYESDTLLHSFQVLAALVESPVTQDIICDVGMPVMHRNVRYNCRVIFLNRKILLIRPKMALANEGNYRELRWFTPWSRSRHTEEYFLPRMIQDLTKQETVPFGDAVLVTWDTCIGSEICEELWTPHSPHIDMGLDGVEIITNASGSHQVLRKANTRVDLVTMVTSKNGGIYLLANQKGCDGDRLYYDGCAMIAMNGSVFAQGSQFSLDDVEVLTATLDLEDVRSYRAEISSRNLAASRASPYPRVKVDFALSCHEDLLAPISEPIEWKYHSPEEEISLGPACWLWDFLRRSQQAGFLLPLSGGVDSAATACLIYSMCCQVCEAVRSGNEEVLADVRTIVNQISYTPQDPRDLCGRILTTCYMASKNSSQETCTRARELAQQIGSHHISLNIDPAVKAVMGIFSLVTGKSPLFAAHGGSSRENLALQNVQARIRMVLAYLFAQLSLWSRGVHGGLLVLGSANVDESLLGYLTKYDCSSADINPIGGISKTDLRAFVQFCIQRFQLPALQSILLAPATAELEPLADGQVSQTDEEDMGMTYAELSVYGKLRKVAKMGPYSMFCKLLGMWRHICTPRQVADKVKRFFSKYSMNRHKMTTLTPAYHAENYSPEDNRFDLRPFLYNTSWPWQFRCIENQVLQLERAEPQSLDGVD

Molecule: CC(C)C[C@H](NC(=O)[C@H](CO)NC(=O)[C@H](CCC(N)=O)NC(=O)[C@H](C)NC(=O)[C@H](CCCNC(=N)N)NC(=O)[C@H](CCCNC(=N)N)NC(=O)[C@H](CCCNC(=N)N)NC(=O)[C@H](CCCNC(=N)N)NC(=O)[C@H](CCCNC(=N)N)NC(=O)[C@H](CCCNC(=N)N)NC(=O)[C@H](CCCNC(=N)N)NC(=O)[C@H](CCCNC(=N)N)NC(=O)[C@@H](N)CCCNC(=N)N)C(=O)N[C@@H](C)C(=O)N[C@@H](CCC(=O)O)C(=O)N[C@@H](CC(=O)O)C(=O)N[C@@H](CC(=O)O)C(=O)N[C@H](C(=O)N[C@@H](CCC(=O)O)C(=O)O)C(C)C [R9–Tom20] (H-RRRRRRRRRAQSLAEDDVE-OH)
- inhibition of Tom20–Tom70 interaction (mammalian two-hybrid, luciferase) [1]: sensitive
- decrease of Hsp90–Tom70 interaction signal (PLA) [2]: failed to inhibit
- inhibition of Hsp90–Tom70 interaction (mammalian two-hybrid, luciferase) [3]: inhibited only by addition of R9–Hsp90 peptide
- fluorescein staining of HEK293 cells (peptide translocation into the cells) [4]: resulted in HEK293 cells staining

Molecule: H-DDDDDDDDDD-OH [poly‐D, reference compound]
- signal of HRP-conjugated peptide in dot-blot binding assay [5]: did not produce any signal
- interaction with FKBP51 [6]: no interaction was observed

B1: Bcl-G (natural protein, human, UniProt Q9BZR8 1-327, looked up)
chain: MCSTSGCDLEEIPLDDDDLNTIEFKILAYYTRHHVFKSTPALFSPKLLRTRSLSQRGLGNCSANESWTEVSWPCRNSQSSEKAINLGKKKSSWKAFFGVVEKEDSQSTPAKVSAQGQRTLEYQDSHSQQWSRCLSNVEQCLEHEAVDPKVISIANRVAEIVYSWPPPQATQAGGFKSKEIFVTEGLSFQLQGHVPVASSSKKDEEEQILAKIVELLKYSGDQLERKLKKDKALMGHFQDGLSYSVFKTITDQVLMGVDPRGESEVKAQGFKAALVIDVTAKLTAIDNHPMNRVLGFGTKYLKENFSPWIQQHGGWEKILGISHEEVD
notes: Bcl-2-like protein 14 (Bcl-G), human, full-length cDNA clone; also called Bcl-2-like protein 14; source: E. coli BL21, purified as GST fusion (GSTrap), GST removed with PreScission protease
- binding result [7]: binds
- binding result [8]: binds

Molecule: B2
- binding result [9]: binds
- binding result [10]: binds

Molecule: B3
- binding result [9]: binds
- binding result [10]: binds
